Measurements taken from patent US11649255B2, “Indazoles as hematopoietic progenitor kinase 1 (HPK1) inhibitors and methods using same” (1st Biotherapeutics, Inc., priority 2020, dated 2023).
Where two headings read alike, the source gives them in different places.

Experiments:
recombinant human HPK1 = recombinant human HPK1 (Homo sapiens (Human), UniProt Q92918); assay: HPK1 kinase assay (ADP-Glo); format: biochemical; details: 25 μM ATP, MBP substrate
Method in brief: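 Activity was read as ADP formed, detected by ADP-Glo luminescence after the reaction of 5 ng recombinant human HPK1 with MBP and ATP (stocks 0.5 μg/μl and 25 μM) for 40 min at 30 °C. Buffer was Tris pH 7.5 with MgCl2, BSA and DTT, with compound in 0.5% DMSO. IC50 came from inhibition curves.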

[1] = tested on: human peripheral blood pan T cells; assay: IFNγ and IL-2 analysis of human peripheral pan T cells; format: cell-based; details: T-cell, CD3/CD28 bead stimulation, 100 nM Prostaglandin E2, 24 hr
Description: IFNγ and IL-2 Analysis of Human Peripheral Pan T Cells
Human peripheral blood pan T cells were purchased from STEMCELL™ Technologies Inc. Human peripheral blood pan T cells were thawed and suspended in DMEM media (10% FBS and 10 Penicillin/Streptomycin). 8×10^4 T cells were seeded in 96-well plate and incubated with various concentration of compounds and 100 nM Prostaglandin E2 for 1 hr. T cells were stimulated with Dynabeads Human T-Activator CD3/CD28 (Life Technologies) at a 1:3 cells: beads ratio. […] Data were analyzed with an MESO Quickplex SQ120 (Mesoscale Discovery).
In Table 3, the values represent + for >1000 nM, ++ 200-1,000 nM, +++ for <200 nM and − for not determined.

[2] = IFNγ secretion, read-out: IFNγ (EC50)
[3] = IL-2 secretion, read-out: IL-2 (EC50)

Chain of recombinant human HPK1 (Q92918 whole entry): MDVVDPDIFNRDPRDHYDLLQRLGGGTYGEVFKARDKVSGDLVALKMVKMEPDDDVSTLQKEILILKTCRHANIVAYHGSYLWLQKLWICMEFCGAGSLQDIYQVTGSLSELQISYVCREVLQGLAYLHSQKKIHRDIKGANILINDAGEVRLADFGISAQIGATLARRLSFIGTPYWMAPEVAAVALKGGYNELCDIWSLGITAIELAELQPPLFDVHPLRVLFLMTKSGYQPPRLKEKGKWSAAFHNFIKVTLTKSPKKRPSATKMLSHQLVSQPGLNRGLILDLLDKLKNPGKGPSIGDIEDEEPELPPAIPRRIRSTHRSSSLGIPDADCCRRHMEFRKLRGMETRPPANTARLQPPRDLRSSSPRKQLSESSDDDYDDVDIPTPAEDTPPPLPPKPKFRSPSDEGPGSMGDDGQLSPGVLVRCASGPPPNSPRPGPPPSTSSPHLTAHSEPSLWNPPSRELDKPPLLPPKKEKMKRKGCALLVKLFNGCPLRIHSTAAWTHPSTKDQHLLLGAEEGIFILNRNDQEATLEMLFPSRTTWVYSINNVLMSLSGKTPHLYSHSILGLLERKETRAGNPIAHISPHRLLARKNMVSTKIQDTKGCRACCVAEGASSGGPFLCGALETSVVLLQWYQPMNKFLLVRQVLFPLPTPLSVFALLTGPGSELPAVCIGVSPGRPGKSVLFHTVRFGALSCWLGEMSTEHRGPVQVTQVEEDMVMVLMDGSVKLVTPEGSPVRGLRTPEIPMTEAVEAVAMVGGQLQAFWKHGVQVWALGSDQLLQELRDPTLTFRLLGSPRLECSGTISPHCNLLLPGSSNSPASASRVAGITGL

| SMILES | IC50 (recombinant human HPK1) [nM] | EC50 [1, 2] [nM] | EC50 [1, 3] [nM] |
| --- | --- | --- | --- |
| Cc1c(F)c(OCCO)c2[nH]ncc2c1-c1ccn2nc(NC(=O)[C@@H]3C[C@@H]3F)cc2c1 [Example 534, (1S,2S)-2-fluoro-N-(5-(6-fluoro-7-(2-hydroxyethoxy)-5-methyl-1H-indazol-4-yl)pyrazolo[1,5-a]pyridin-2-yl)cyclopropane-1-carboxamide] | < 100 | < 200 |  |
| CSc1c(F)c(N(C)C)c2[nH]ncc2c1-c1ccc2nc(NC(=O)[C@@H]3C[C@@H]3F)sc2c1 [Example 110, (1S,2S)-N-(6-(7-(dimethylamino)-6-fluoro-5-(methylthio)-1H-indazol-4-yl)benzo[d]thiazol-2-yl)-2-fluorocyclopropane-1-carboxamide] | < 100 | < 200 |  |
| Cc1c(F)c(C(=O)N(C)C)c2[nH]ncc2c1-c1ccn2nc(NC(=O)[C@@H]3C[C@@H]3F)cc2c1 [Example 570, 6-fluoro-4-(2-((1S,2S)-2-fluorocyclopropane-1-carboxamido)pyrazolo[1,5-a]pyridin-5-yl)-N,N,5-trimethyl-1H-indazole-7-carboxamide] | < 100 | < 200 | 200 to 1000 |
| CN(C)C(=O)c1c(F)c(Cl)c(-c2ccc3nc(NC(=O)[C@@H]4C[C@@H]4F)sc3c2)c2cn[nH]c12 [Example 125, 5-chloro-6-fluoro-4-(2-((1S,2S)-2-fluorocyclopropane-1-carboxamido)benzo[d]thiazol-6-yl)-N,N-dimethyl-1H-indazole-7-carboxamide] | < 100 | < 200 |  |
| CN(C)c1c(F)c(Cl)c(-c2ccc3nc(NC(=O)[C@H]4C[C@H]4F)cn3c2)c2cn[nH]c12 [Example 334, (1R,2R)-N-(6-(5-chloro-7-(dimethylamino)-6-fluoro-1H-indazol-4-yl)imidazo[1,2-a]pyridin-2-yl)-2-fluorocyclopropane-1-carboxamide] | < 100 | 200 to 1000 | 200 to 1000 |
| CSc1c(F)c(SC)c2[nH]ncc2c1-c1ccn2nc(NC(=O)[C@@H]3C[C@@H]3F)cc2c1 [Example 529, (1S,2S)-2-fluoro-N-(5-(6-fluoro-5,7-bis(methylthio)-1H-indazol-4-yl)pyrazolo[1,5-a]pyridin-2-yl)cyclopropane-1-carboxamide] | < 100 | < 200 | < 200 |
| CCOc1c(F)c(CC)c(-c2ccn3nc(NC(=O)[C@@H]4C[C@@H]4F)cc3c2)c2cn[nH]c12 [Example 531, (1S,2S)-N-(5-(7-ethoxy-5-ethyl-6-fluoro-1H-indazol-4-yl)pyrazolo[1,5-a]pyridin-2-yl)-2-fluorocyclopropane-1-carboxamide] | < 100 | < 200 | 200 to 1000 |
| CCNc1c(F)c(CC)c(-c2ccn3nc(NC(=O)[C@@H]4C[C@@H]4F)cc3c2)c2cn[nH]c12 [Example 524, (1S,2S)-N-(5-(5-ethyl-7-(ethylamino)-6-fluoro-1H-indazol-4-yl)pyrazolo[1,5-a]pyridin-2-yl)-2-fluorocyclopropane-1-carboxamide] | < 100 | < 200 | < 200 |
| CSc1c(F)cc2[nH]ncc2c1-c1ccc2nc(NC(=O)[C@@H]3C[C@@H]3F)sc2n1 [Example 156, (1S,2S)-2-fluoro-N-(5-(6-fluoro-5-(methylthio)-1H-indazol-4-yl)thiazolo[5,4-b]pyridin-2-yl)cyclopropane-1-carboxamide] | < 100 | 200 to 1000 | 200 to 1000 |
| CN(c1c(F)c(Cl)c(-c2ccn3nc(NC(=O)[C@@H]4C[C@@H]4F)cc3c2)c2cn[nH]c12)C1CC(O)C1 (stereo partly drawn) [Example 561, (1S,2S)-N-(5-(5-chloro-6-fluoro-7-((3-hydroxycyclobutyl)(methyl)amino)-1H-indazol-4-yl)pyrazolo[1,5-a]pyridin-2-yl)-2-fluorocyclopropane-1-carboxamide] | < 100 | 200 to 1000 | 200 to 1000 |
| CN(c1c(F)c(Cl)c(-c2ccc3nc(NC(=O)[C@@H]4C[C@@H]4F)cn3c2)c2cn[nH]c12)C1CC1 [Example 361, (1S,2S)-N-(6-(5-chloro-7-(cyclopropyl(methyl)amino)-6-fluoro-1H-indazol-4-yl)imidazo[1,2-a]pyridin-2-yl)-2-fluorocyclopropane-1-carboxamide] | < 100 | 200 to 1000 | > 1000 |

The remaining lines, values ahead:

| IC50 (recombinant human HPK1) [nM] | EC50 [1, 2] [nM] | EC50 [1, 3] [nM] | SMILES |
| --- | --- | --- | --- |
| < 100 | 200 to 1000 |  | CCc1c(F)c(N(C)C)c2[nH]ncc2c1-c1ccc2nc(NC(=O)[C@@H]3C[C@@H]3F)sc2n1 [Example 161, (1S,2S)-N-(5-(7-(dimethylamino)-5-ethyl-6-fluoro-1H-indazol-4-yl)thiazolo[5,4-b]pyridin-2-yl)-2-fluorocyclopropane-1-carboxamide] |
| < 100 | 200 to 1000 | 200 to 1000 | CCc1c(F)c(N(C)CC)c2[nH]ncc2c1-c1ccc2nc(NC(=O)[C@@H]3C[C@@H]3F)cn2c1 [Example 326, (1S,2S)-N-(6-(5-ethyl-7-(ethyl(methyl)amino)-6-fluoro-1H-indazol-4-yl)imidazo[1,2-a]pyridin-2-yl)-2-fluorocyclopropane-1-carboxamide] |
| < 100 | < 200 | < 200 | CSc1c(F)c(SC)c2[nH]ncc2c1-c1ccc2nc(NC(=O)[C@@H]3C[C@@H]3F)cn2c1 [Example 297, (1S,2S)-2-fluoro-N-(6-(6-fluoro-5,7-bis(methylthio)-1H-indazol-4-yl)imidazo[1,2-a]pyridin-2-yl)cyclopropane-1-carboxamide] |
| < 100 | 200 to 1000 | 200 to 1000 | CN(C)c1c(F)c(Cl)c(-c2ccc3nc(NC(=O)[C@@H]4C[C@H]4F)cn3c2)c2cn[nH]c12 [Example 333, (1S,2R)-N-(6-(5-chloro-7-(dimethylamino)-6-fluoro-1H-indazol-4-yl)imidazo[1,2-a]pyridin-2-yl)-2-fluorocyclopropane-1-carboxamide] |
| < 100 | < 200 | 200 to 1000 | CN(C)C(=O)c1c(F)c(Cl)c(-c2ccn3nc(NC(=O)[C@@H]4C[C@@H]4F)cc3c2)c2cn[nH]c12 [Example 556, 5-chloro-6-fluoro-4-(2-((1S,2S)-2-fluorocyclopropane-1-carboxamido)pyrazolo[1,5-a]pyridin-5-yl)-N,N-dimethyl-1H-indazole-7-carboxamide] |
| < 100 | < 200 | 200 to 1000 | CSc1c(F)c(N(C)C)c2[nH]ncc2c1-c1ccn2nc(NC(=O)[C@@H]3C[C@@H]3F)cc2c1 [Example 558, (1S,2S)-N-(5-(7-(dimethylamino)-6-fluoro-5-(methylthio)-1H-indazol-4-yl)pyrazolo[1,5-a]pyridin-2-yl)-2-fluorocyclopropane-1-carboxamide] |
| < 100 | < 200 | < 200 | CCc1c(F)c(SCC#N)c2[nH]ncc2c1-c1ccn2nc(NC(=O)[C@@H]3C[C@@H]3F)cc2c1 [Example 588, (1S,2S)-N-(5-(7-((cyanomethyl)thio)-5-ethyl-6-fluoro-1H-indazol-4-yl)pyrazolo[1,5-a]pyridin-2-yl)-2-fluorocyclopropane-1-carboxamide] |
| < 100 | 200 to 1000 | 200 to 1000 | CCN(C)c1c(F)c(Cl)c(-c2ccn3nc(NC(=O)[C@@H]4C[C@@H]4F)cc3c2)c2cn[nH]c12 [Example 564, (1S,2S)-N-(5-(5-chloro-7-(ethyl(methyl)amino)-6-fluoro-1H-indazol-4-yl)pyrazolo[1,5-a]pyridin-2-yl)-2-fluorocyclopropane-1-carboxamide] |
| < 100 | 200 to 1000 |  | CCc1c(F)c(F)c2[nH]ncc2c1-c1ccn2nc(NC(=O)[C@@H]3C[C@@H]3F)cc2c1 [Example 532, (1S,2S)-N-(5-(5-ethyl-6,7-difluoro-1H-indazol-4-yl)pyrazolo[1,5-a]pyridin-2-yl)-2-fluorocyclopropane-1-carboxamide] |
| < 100 | 200 to 1000 | 200 to 1000 | CN(C)c1c(F)c(C(F)(F)F)c(-c2ccn3nc(NC(=O)[C@@H]4C[C@@H]4F)cc3c2)c2cn[nH]c12 [Example 565, (1S,2S)-N-(5-(7-(dimethylamino)-6-fluoro-5-(trifluoromethyl)-1H-indazol-4-yl)pyrazolo[1,5-a]pyridin-2-yl)-2-fluorocyclopropane-1-carboxamide] |
| < 100 | 200 to 1000 | 200 to 1000 | CN(C)c1c(F)c(Cl)c(-c2ccc3nc(NC(=O)[C@H]4C[C@@H]4F)cn3c2)c2cn[nH]c12 [Example 332, (1R,2S)-N-(6-(5-chloro-7-(dimethylamino)-6-fluoro-1H-indazol-4-yl)imidazo[1,2-a]pyridin-2-yl)-2-fluorocyclopropane-1-carboxamide] |
| < 100 | 200 to 1000 | 200 to 1000 | CSc1c(F)cc2[nH]ncc2c1-c1ccn2nc(NC(=O)[C@@H]3C[C@@H]3F)cc2c1 [Example 530, (1S,2S)-2-fluoro-N-(5-(6-fluoro-5-(methylthio)-1H-indazol-4-yl)pyrazolo[1,5-a]pyridin-2-yl)cyclopropane-1-carboxamide] |
| < 100 | 200 to 1000 |  | CSc1c(F)c(N(C)C)c2[nH]ncc2c1-c1ccc2nc(NC(=O)[C@@H]3C[C@@H]3F)sc2n1 [Example 194, (1S,2S)-N-(5-(7-(dimethylamino)-6-fluoro-5-(methylthio)-1H-indazol-4-yl)thiazolo[5,4-b]pyridin-2-yl)-2-fluorocyclopropane-1-carboxamide] |
